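Values below derive from 48-hour exposures of cells grown in 96-well plates, with endpoints linearly interpolated between the two concentrations bracketing the appropriate inhibition level. GI50 marks 50% less growth.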 Calls of active or inactive are those of the source. Cut-off read from the data, not from the text of the source: active = GI50 up to about 1.1 µM and inactive = higher.
How the values were obtained:
Assay in all cases: NCI anticancer screen, dose series, 48 h
A498 = test system: A498
BT-549 = test system: BT-549
CAKI-1 = test system: CAKI-1
DU-145 = test system: DU-145
HCC 2998 = test system: HCC 2998
HOP-92 = test system: HOP-92
Hs-578T = test system: Hs-578T
MCF7 = test system: MCF7
MDA-MB-435 = test system: MDA-MB-435
MDA-N = test system: MDA-N
Malme-3M = test system: Malme-3M
NCI-H226 = test system: NCI-H226
NCI/ADR-RES = test system: NCI/ADR-RES
PC-3 = test system: PC-3
RXF 393 = test system: RXF 393
SK-MEL-28 = test system: SK-MEL-28
SK-MEL-2 = test system: SK-MEL-2
SNB-75 = test system: SNB-75
T47D = test system: T47D
786-0 = test system: 786-0
A549 = test system: A549
ACHN = test system: ACHN
CCRF-CEM = test system: CCRF-CEM
COLO 205 = test system: COLO 205
EKVX = test system: EKVX
HCT-116 = test system: HCT-116
HCT-15 = test system: HCT-15
HL-60 = test system: HL-60
HOP-62 = test system: HOP-62
HT-29 = test system: HT-29
IGROV-1 = test system: IGROV-1
K562 = test system: K562
KM12 = test system: KM12
LOX IMVI = test system: LOX IMVI
M14 = test system: M14
MDA-MB-231 = test system: MDA-MB-231
MOLT-4 = test system: MOLT-4
NCI-H23 = test system: NCI-H23
NCI-H460 = test system: NCI-H460
NCI-H522 = test system: NCI-H522
OVCAR-3 = test system: OVCAR-3
OVCAR-4 = test system: OVCAR-4
OVCAR-5 = test system: OVCAR-5
OVCAR-8 = test system: OVCAR-8
RPMI-8226 = test system: RPMI-8226
SF-268 = test system: SF-268
SF-295 = test system: SF-295
SF-539 = test system: SF-539
SK-MEL-5 = test system: SK-MEL-5
SK-OV-3 = test system: SK-OV-3
SN12C = test system: SN12C
SNB-19 = test system: SNB-19
SR = test system: SR
SW-620 = test system: SW-620
TK-10 = test system: TK-10
U-251 = test system: U-251
UACC-257 = test system: UACC-257
UO-31 = test system: UO-31

What does the source list for `COc1c(OC(C)C)cc2cc(O)c(C(=O)NC3Cc4ccc(c(Cl)n4)O[C@@H]4C=C5C#C/C(=C\C#CC6OC56C4OC4CC(C)(O)C(O)C(C)O4)C(OC4CC(O)C(N(C)C)C(C)O4)COC3=O)cc2c1OC` (stereo partly specified)?
GI50 (A498): > 36.3 µM (inactive); GI50 (BT-549): > 36.3 µM (inactive); GI50 (CAKI-1): 10.9 µM (inactive); GI50 (DU-145): 11.5 µM (inactive); GI50 (HCC 2998): > 36.3 µM (inactive); GI50 (HOP-92): > 36.3 µM (inactive); GI50 (Hs-578T): > 36.3 µM (inactive); GI50 (MCF7): 2.64 µM (inactive); GI50 (MDA-MB-435): > 36.3 µM (inactive); GI50 (MDA-N): > 36.3 µM (inactive); GI50 (Malme-3M): > 36.3 µM (inactive); GI50 (NCI-H226): > 36.3 µM (inactive); GI50 (NCI/ADR-RES): > 36.3 µM (inactive); GI50 (PC-3): 35.8 µM (inactive); GI50 (RXF 393): > 36.3 µM (inactive); GI50 (SK-MEL-28): > 36.3 µM (inactive); GI50 (SK-MEL-2): > 36.3 µM (inactive); GI50 (SNB-75): > 36.3 µM (inactive); GI50 (T47D): > 36.3 µM (inactive)

Which GI50 (786-0) does the source give for `CC(=N\c1ccncc1)/C(C)=N/c1ccncc1` here?
The GI50 was 34.7 µM (inactive).

What about the GI50 (A498) of the same molecule?
Its GI50 is 34.4 µM (inactive).

What about the GI50 (A549) of the same molecule?
Its GI50 is > 100 µM (inactive).

And the GI50 (ACHN)?
The GI50 was 14.5 µM (inactive).

What about the GI50 (BT-549) of the same molecule?
The GI50 was 23.3 µM (inactive).

And the GI50 (CAKI-1)?
Its GI50 is 16.8 µM (inactive).

What about the GI50 (CCRF-CEM) of the same molecule?
The GI50 was 25.8 µM (inactive).

And the GI50 (COLO 205)?
The GI50 was 17 µM (inactive).

And the GI50 (DU-145)?
Its GI50 is 53.6 µM (inactive).

And the GI50 (EKVX)?
The GI50 was 20.7 µM (inactive).

What about the GI50 (HCC 2998) of the same molecule?
Its GI50 is 19 µM (inactive).

What about the GI50 (HCT-116) of the same molecule?
The GI50 was 29.8 µM (inactive).

What about the GI50 (HCT-15) of the same molecule?
Its GI50 is 14.4 µM.

And the GI50 (HL-60)?
Its GI50 is 26.7 µM (inactive).

What about the GI50 (HOP-62) of the same molecule?
The GI50 was 18.5 µM (inactive).

And the GI50 (HOP-92)?
Its GI50 is 22.3 µM (inactive).

What about the GI50 (HT-29) of the same molecule?
The GI50 was 19 µM (inactive).

And the GI50 (Hs-578T)?
Its GI50 is 28.8 µM (inactive).

And the GI50 (IGROV-1)?
Its GI50 is 17.3 µM (inactive).

What about the GI50 (K562) of the same molecule?
Its GI50 is 31 µM (inactive).

And the GI50 (KM12)?
The GI50 was 38.3 µM (inactive).

What about the GI50 (LOX IMVI) of the same molecule?
Its GI50 is 19.5 µM (inactive).

And the GI50 (M14)?
Its GI50 is 18.7 µM (inactive).

And the GI50 (MCF7)?
Its GI50 is 16.7 µM (inactive).

And the GI50 (MDA-MB-231)?
The GI50 was 21.8 µM (inactive).

And the GI50 (MDA-MB-435)?
Its GI50 is 29.2 µM (inactive).

And the GI50 (MOLT-4)?
Its GI50 is 24.4 µM (inactive).

And the GI50 (Malme-3M)?
Its GI50 is 17.6 µM (inactive).

What about the GI50 (NCI-H226) of the same molecule?
Its GI50 is 34 µM (inactive).

What about the GI50 (NCI-H23) of the same molecule?
The GI50 was 16.5 µM (inactive).

What about the GI50 (NCI-H460) of the same molecule?
The GI50 was 96.6 µM (inactive).

What about the GI50 (NCI-H522) of the same molecule?
The GI50 was 16.3 µM (inactive).

And the GI50 (NCI/ADR-RES)?
Its GI50 is 34.4 µM (inactive).

What about the GI50 (OVCAR-3) of the same molecule?
The GI50 was 15.4 µM (inactive).

What about the GI50 (OVCAR-4) of the same molecule?
Its GI50 is 11.4 µM (inactive).

What about the GI50 (OVCAR-5) of the same molecule?
The GI50 was 17 µM (inactive).

And the GI50 (OVCAR-8)?
Its GI50 is 35.2 µM (inactive).

And the GI50 (PC-3)?
The GI50 was 19.3 µM (inactive).

What about the GI50 (RPMI-8226) of the same molecule?
Its GI50 is 21.1 µM (inactive).

What about the GI50 (RXF 393) of the same molecule?
Its GI50 is 27.4 µM (inactive).

And the GI50 (SF-268)?
The GI50 was 30.4 µM (inactive).

What about the GI50 (SF-295) of the same molecule?
Its GI50 is 73.5 µM (inactive).

What about the GI50 (SF-539) of the same molecule?
Its GI50 is 18.7 µM (inactive).

What about the GI50 (SK-MEL-28) of the same molecule?
The GI50 was 29.1 µM (inactive).

And the GI50 (SK-MEL-2)?
The GI50 was 20.7 µM (inactive).

And the GI50 (SK-MEL-5)?
Its GI50 is 19.5 µM (inactive).

What about the GI50 (SK-OV-3) of the same molecule?
Its GI50 is > 100 µM (inactive).

What about the GI50 (SN12C) of the same molecule?
Its GI50 is 16.2 µM (inactive).

What about the GI50 (SNB-19) of the same molecule?
Its GI50 is 27.5 µM (inactive).

What about the GI50 (SNB-75) of the same molecule?
Its GI50 is > 100 µM (inactive).

What about the GI50 (SR) of the same molecule?
Its GI50 is 27.1 µM (inactive).

And the GI50 (SW-620)?
Its GI50 is 30.8 µM (inactive).

And the GI50 (T47D)?
Its GI50 is 26.2 µM (inactive).

And the GI50 (TK-10)?
Its GI50 is 35.8 µM (inactive).

What about the GI50 (U-251) of the same molecule?
The GI50 was 24.5 µM (inactive).

And the GI50 (UACC-257)?
Its GI50 is 36.3 µM (inactive).

What about the GI50 (UO-31) of the same molecule?
Its GI50 is 17 µM (inactive).

From ChEMBL document CHEMBL1201862, “PubChem BioAssay data set” (2004)
